Results on 43 molecules are retold here after patent US12528816B2, “Substituted imidazo [1,2-b] pyridazines and [1, 2, 4] triazolo [ 4,3-b] pyridazines as camkii inhibitors” (Cardurion Pharmaceuticals, INC., priority 2020, dated 2026).

pIC50: −log10 of the molar value. A value given as a limit tells only on which side of the number the result lay.

The target in this test is T1, human CaMKIIδ (Homo sapiens, UniProt Q13557).
T1 construct: Full-length, glutathione-S-transferase(GST)-tagged, human CaMKIIδ was purchased from Carna Biosciences; purchased Carna Biosciences (CaMKIIδ); Wako Pure Chemical Industries (calmodulin) 02-111
The test is described as follows: Evaluation of in vitro CaMKII inhibitory activity (binding assay, TR-FRET). Particulars: human CaMKIIδ, TR-FRET binding assay; class symbols A/B/C; read-out: Act (CaMKII inhibitory activity, binding assay). In short, it runs like this: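 Inhibitors, in eight concentrations of 4-fold dilution, were incubated 1 h at room temperature with a protein–fluorescent probe premix preformed 30 min on ice, containing calmodulin and terbium anti-GST antibody. Displacement read by TR-FRET in duplicate; IC50 by logistic fitting.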
Turning to `C[C@@H](Cn1cnnn1)Oc1cccc(-c2ccn3ncc(-c4cccc(C(=O)NC5CN(C)C5)c4)c3n2)c1` [compound 70], the pIC50 was > 8.00. For the molecule `C[C@@H](Cn1cnnn1)Oc1cccc(-c2ccn3ncc(-c4cccc(C(=O)N5CCOCC5)c4)c3n2)c1` [compound 71], the pIC50 was 7.00 to 8.00. For `C[C@@H](Cn1cnnn1)Oc1cccc(-c2ccn3ncc(-c4cccc(C(=O)NCC(C)(C)C)c4)c3n2)c1` [compound 72] the value was > 8.00; for `CC(=O)NC1CCN(C(=O)c2cccc(-c3cnn4ccc(-c5cccc(O[C@@H](C)Cn6cnnn6)c5)nc34)c2)CC1` [compound 73], 7.00 to 8.00; for `C[C@@H](Cn1cnnn1)Oc1cccc(-c2ccn3ncc(-c4cccc(C(=O)NCCCN5CCCC5=O)c4)c3n2)c1` [compound 74], > 8.00. For `CC(=O)N1CCC(NC(=O)c2cccc(-c3cnn4ccc(-c5cccc(O[C@@H](C)Cn6cnnn6)c5)nc34)c2)CC1` [compound 75], the pIC50 was > 8.00.

In the case of `C[C@@H](Cn1cnnn1)Oc1cccc(-c2ccn3ncc(-c4cccc(C(=O)NCCC5CCN(C)CC5)c4)c3n2)c1` [compound 76], the pIC50 was > 8.00.

Regarding `CNC(=O)CNC(=O)c1cccc(-c2cnn3ccc(-c4cccc(O[C@@H](C)Cn5cnnn5)c4)nc23)c1` [compound 77], the pIC50 is > 8.00.

As for `C[C@@H](Cn1cnnn1)Oc1cccc(-c2ccn3ncc(-c4cccc(C(=O)NCCCN5CCOCC5)c4)c3n2)c1` [compound 78], the pIC50 was > 8.00. For the molecule `C[C@@H](Cn1cnnn1)Oc1cccc(-c2ccn3ncc(-c4cccc(C(=O)NCCCCO)c4)c3n2)c1` [compound 79], the pIC50 is > 8.00.

In the case of `C[C@@H](Cn1cnnn1)Oc1cccc(-c2ccn3ncc(-c4cccc(C(=O)NCC(C)(C)O)c4)c3n2)c1` [compound 80], the pIC50 is > 8.00.

On to `C[C@@H](Cn1cnnn1)Oc1cccc(-c2ccn3ncc(-c4cccc(C(=O)Nc5ccccc5)c4)c3n2)c1` [compound 81], for which the pIC50 is 7.00 to 8.00. On to `C[C@@H](Cn1cnnn1)Oc1cccc(-c2ccn3ncc(-c4cccc(C(=O)Nc5ccncc5)c4)c3n2)c1` [compound 82], for which the pIC50 was > 8.00. `C[C@@H](Cn1cnnn1)Oc1cccc(-c2ccn3ncc(-c4cccc(C(=O)Nc5ccccn5)c4)c3n2)c1` [compound 83]: the pIC50 is > 8.00. Take `C[C@@H](Cn1cnnn1)Oc1cccc(-c2ccn3ncc(-c4cccc(C(=O)Nc5cccnc5)c4)c3n2)c1` [compound 84]: the pIC50 is > 8.00. For the molecule `C[C@@H](Cn1cnnn1)Oc1cccc(-c2ccn3ncc(-c4cccc(C(=O)Nc5cnn(C)c5)c4)c3n2)c1` [compound 85], the pIC50 is > 8.00. In the case of `C[C@@H](Cn1cnnn1)Oc1cccc(-c2ccn3ncc(-c4cccc(C(=O)NC5CN(Cc6ccccc6)C5)c4)c3n2)c1` [compound 86], the pIC50 is > 8.00.

On to `C[C@@H](Cn1cnnn1)Oc1cccc(-c2ccn3ncc(-c4cccc(C(=O)NCCN5CCS(=O)(=O)CC5)c4)c3n2)c1` [compound 87], for which the pIC50 was > 8.00. Take `C[C@@H](Cn1cnnn1)Oc1cccc(-c2ccn3ncc(-c4cccc(C(=O)NC5CCN(C)C5)c4)c3n2)c1` (stereo partly shown) [compound 88]: the pIC50 is > 8.00. Turning to `C[C@@H](Cn1cnnn1)Oc1cccc(-c2ccn3ncc(-c4cccc(C(=O)N5CCC(O)CC5)c4)c3n2)c1` [compound 89], the pIC50 was 7.00 to 8.00. Regarding `CC(=O)NCCNC(=O)c1cccc(-c2cnn3ccc(-c4cccc(O[C@@H](C)Cn5cnnn5)c4)nc23)c1` [compound 90], the pIC50 was > 8.00. As for `C[C@@H](Cn1cnnn1)Oc1cccc(-c2ccn3ncc(-c4cccc(C(=O)NCc5ccccc5)c4)c3n2)c1` [compound 91], the pIC50 was > 8.00. For `C[C@@H](Cn1cnnn1)Oc1cccc(-c2ccn3ncc(-c4cccc(C(=O)NCc5ccccn5)c4)c3n2)c1` [compound 92], the pIC50 was > 8.00. Take `C[C@@H](Cn1cnnn1)Oc1cccc(-c2ccn3ncc(-c4cccc(C(=O)NCc5ccncc5)c4)c3n2)c1` [compound 93]: the pIC50 was > 8.00. For the molecule `C[C@@H](Cn1cnnn1)Oc1cccc(-c2ccn3ncc(-c4cccc(C(=O)NCc5cccnc5)c4)c3n2)c1` [compound 94], the pIC50 was > 8.00.

`C[C@@H](Cn1cnnn1)Oc1cccc(-c2ccn3ncc(-c4cccc(C(=O)NCCn5ccnc5)c4)c3n2)c1` [compound 95]: the pIC50 is > 8.00.

With `C[C@@H](Cn1cnnn1)Oc1cccc(-c2ccn3ncc(-c4cccc(C(=O)NCCn5cncn5)c4)c3n2)c1` [compound 96], the pIC50 was > 8.00. With `C[C@@H](Cn1cnnn1)Oc1cccc(-c2ccn3ncc(-c4cccc(C(=O)NC5CC(=O)N(C)C5)c4)c3n2)c1` (stereo partly drawn) [compound 97, N-(1-methyl-5-oxopyrrolidin-3-yl)-3-[5-(3-{[(2S)-1-(1H-tetrazol-1-yl)propan-2-yl]oxy}phenyl)pyrazolo[1,5-a]pyrimidin-3-yl]benzamide], the pIC50 is > 8.00. For `C[C@@H](Cn1cnnn1)Oc1cccc(-c2ccn3ncc(-c4cccc(C(=O)NC5CCN(C)CC5)c4)c3n2)c1` [compound 98] the value was > 8.00. Take `C[C@@H](Cn1cnnn1)Oc1cccc(-c2ccn3ncc(-c4cccc(C(=O)N5CCC(C)(O)CC5)c4)c3n2)c1` [compound 99]: the pIC50 was 7.00 to 8.00.

Turning to `C[C@@H](Cn1cnnn1)Oc1cccc(-c2ccn3ncc(-c4cccc(C(=O)NCC5CCOCC5)c4)c3n2)c1` [compound 100], the pIC50 is > 8.00.

Turning to `COC1CCN(C(=O)c2cccc(-c3cnn4ccc(-c5cccc(O[C@@H](C)Cn6cnnn6)c5)nc34)c2)CC1` [compound 101], the pIC50 was 7.00 to 8.00. In the case of `CC(=O)NCCCNC(=O)c1cccc(-c2cnn3ccc(-c4cccc(O[C@@H](C)Cn5cnnn5)c4)nc23)c1` [compound 102] it was > 8.00; in that of `CCN(CC)CCNC(=O)c1cccc(-c2cnn3ccc(-c4cccc(O[C@@H](C)Cn5cnnn5)c4)nc23)c1` [compound 103], > 8.00. As to `C[C@@H](Cn1cnnn1)Oc1cccc(-c2ccn3ncc(-c4cccc(C(=O)NCCCCN(C)C)c4)c3n2)c1` [compound 104], the pIC50 is > 8.00. Regarding `C[C@@H](Cn1cnnn1)Oc1cccc(-c2ccn3ncc(-c4cccc(C(=O)NCCc5ccccc5)c4)c3n2)c1` [compound 105], the pIC50 is 7.00 to 8.00. As to `C[C@@H](Cn1cnnn1)Oc1cccc(-c2ccn3ncc(-c4cccc(C(=O)NCCc5ccccn5)c4)c3n2)c1` [compound 106], the pIC50 was > 8.00. Turning to `C[C@@H](Cn1cnnn1)Oc1cccc(-c2ccn3ncc(-c4cccc(C(=O)NCCc5ccncc5)c4)c3n2)c1` [compound 107], the pIC50 was > 8.00. On to `C[C@@H](Cn1cnnn1)Oc1cccc(-c2ccn3ncc(-c4cccc(C(=O)NCCc5cccnc5)c4)c3n2)c1` [compound 108], for which the pIC50 was > 8.00. For the molecule `C[C@@H](Cn1cnnn1)Oc1cccc(-c2ccn3ncc(-c4cccc(C(=O)N5CCn6ccnc6C5)c4)c3n2)c1` [compound 109], the pIC50 is 7.00 to 8.00. As to `C[C@@H](Cn1cnnn1)Oc1cccc(-c2ccn3ncc(-c4cccc(C(=O)N5CCn6ncnc6C5)c4)c3n2)c1` [compound 110], the pIC50 is 7.00 to 8.00.

With `C[C@@H](Cn1cnnn1)Oc1cccc(-c2ccn3ncc(-c4cccc(C(=O)NCCC5CCCCC5)c4)c3n2)c1` [compound 111], the pIC50 is 7.00 to 8.00.

With `C[C@@H](Cn1cnnn1)Oc1cccc(-c2ccn3ncc(-c4cccc(C(=O)NC5CCN(C)C(=O)C5)c4)c3n2)c1` (stereo partly shown) [compound 112], the pIC50 is > 8.00.
